In ChEMBL document CHEMBL4152232, “Design, synthesis and pharmacological evaluation of ALK and Hsp90 dual inhibitors bearing resorcinol and 2,4-diaminopyrimidine motifs” (Eur J Med Chem, 2018):
Calls of active or inactive are those of the source. The rule behind the calls is not given here.

Experiments:
BT-474 = assay: Antiproliferative activity against human BT474 cells after 72 hrs by SRB assay; assay type: functional, cell-based; details: BT-474, 72 h
MDA-MB-231 = assay: Antiproliferative activity against human MDA-MB-231 cells after 72 hrs by SRB assay; assay type: functional, cell-based; details: MDA-MB-231, 72 h
[1] = Antiproliferative activity against human EBC1/SR cells after 72 hrs by SRB assay; assay type: functional, cell-based
HCT-116 = assay: Antiproliferative activity against human HCT116 cells after 72 hrs by SRB assay; assay type: functional, cell-based; details: HCT-116, 72 h
NCI-H3122 = assay: Antiproliferative activity against human NCI-H3122 cells after 72 hrs by SRB assay; assay type: functional, cell-based; details: NCI-H3122, 72 h
NCI-N87 = assay: Antiproliferative activity against human NCI-N87 cells after 72 hrs by SRB assay; assay type: functional, cell-based; details: NCI-N87, 72 h
NCI-H460 = assay: Antiproliferative activity against human NCI-H460 cells after 72 hrs by SRB assay; assay type: functional, cell-based; details: NCI-H460, 72 h
DU-145 = assay: Antiproliferative activity against human DU145 cells after 72 hrs by SRB assay; assay type: functional, cell-based; details: DU-145, 72 h
A549 = assay: Antiproliferative activity against human A549 cells after 72 hrs by SRB assay; assay type: functional, cell-based; details: A549, 72 h
EBC-1 = assay: Antiproliferative activity against human EBC1 cells after 72 hrs by SRB assay; assay type: functional, cell-based; details: EBC-1, 72 h
U-87 MG = assay: Antiproliferative activity against human U87MG cells after 72 hrs by SRB assay; assay type: functional, cell-based, U-87MG ATCC
[2] = target: Heat shock protein HSP 90-alpha (Homo sapiens, UniProt P07900); assay: Inhibition of FITC-labeled geldanamycin binding to recombinant HSP90alpha (unknown origin) after 1 hr by fluorescence polarization assay
[3] = target: ALK tyrosine kinase receptor (Homo sapiens, UniProt Q9UM73); assay: Inhibition of recombinant ALK (unknown origin) using poly (Glu,Tyr)4:1 as substrate after 60 mins by ELISA
[4] = target: T1, Heat shock protein HSP90 (Homo sapiens) (UniProt P07900+P08238); assay: Inhibition of Hsp90 in human NCI-H3122 cells assessed as decrease in ALK phosphorylation at Tyr1278 residues up to 1000 nM after 24 hrs by Western blot analysis; assay type: cell-based
[5] = target: T1, Heat shock protein HSP90 (Homo sapiens); assay: Inhibition of Hsp90 in human NCI-H3122 cells assessed as decrease in AKT phosphorylation at Ser473 residues up to 1000 nM after 24 hrs by Western blot analysis; assay type: cell-based
[6] = target: ALK tyrosine kinase receptor (Homo sapiens, UniProt Q9UM73, L1196M); assay: Inhibition of ALK L1196M mutant (unknown origin) using poly (Glu,Tyr)4:1 as substrate after 60 mins by ELISA
[7] = target: T1, Heat shock protein HSP90 (Homo sapiens); assay: Inhibition of Hsp90 in human NCI-H3122 cells assessed as decrease in ERK1/2 phosphorylation up to 1000 nM after 24 hrs by Western blot analysis; assay type: cell-based
[8] = target: T1, Heat shock protein HSP90 (Homo sapiens); assay: Inhibition of Hsp90 in human NCI-H3122 cells assessed as upregulation of Hsp70 after 24 hrs by Western blot analysis; assay type: cell-based
[9] = target: ALK tyrosine kinase receptor (Homo sapiens, UniProt Q9UM73, G1202R); assay: Inhibition of ALK G1202R mutant (unknown origin) using poly (Glu,Tyr)4:1 as substrate after 60 mins by ELISA
Sequence of ALK tyrosine kinase receptor (Homo sapiens, UniProt Q9UM73, G1202R) (Q9UM73 19-1620 G1202R limits assumed): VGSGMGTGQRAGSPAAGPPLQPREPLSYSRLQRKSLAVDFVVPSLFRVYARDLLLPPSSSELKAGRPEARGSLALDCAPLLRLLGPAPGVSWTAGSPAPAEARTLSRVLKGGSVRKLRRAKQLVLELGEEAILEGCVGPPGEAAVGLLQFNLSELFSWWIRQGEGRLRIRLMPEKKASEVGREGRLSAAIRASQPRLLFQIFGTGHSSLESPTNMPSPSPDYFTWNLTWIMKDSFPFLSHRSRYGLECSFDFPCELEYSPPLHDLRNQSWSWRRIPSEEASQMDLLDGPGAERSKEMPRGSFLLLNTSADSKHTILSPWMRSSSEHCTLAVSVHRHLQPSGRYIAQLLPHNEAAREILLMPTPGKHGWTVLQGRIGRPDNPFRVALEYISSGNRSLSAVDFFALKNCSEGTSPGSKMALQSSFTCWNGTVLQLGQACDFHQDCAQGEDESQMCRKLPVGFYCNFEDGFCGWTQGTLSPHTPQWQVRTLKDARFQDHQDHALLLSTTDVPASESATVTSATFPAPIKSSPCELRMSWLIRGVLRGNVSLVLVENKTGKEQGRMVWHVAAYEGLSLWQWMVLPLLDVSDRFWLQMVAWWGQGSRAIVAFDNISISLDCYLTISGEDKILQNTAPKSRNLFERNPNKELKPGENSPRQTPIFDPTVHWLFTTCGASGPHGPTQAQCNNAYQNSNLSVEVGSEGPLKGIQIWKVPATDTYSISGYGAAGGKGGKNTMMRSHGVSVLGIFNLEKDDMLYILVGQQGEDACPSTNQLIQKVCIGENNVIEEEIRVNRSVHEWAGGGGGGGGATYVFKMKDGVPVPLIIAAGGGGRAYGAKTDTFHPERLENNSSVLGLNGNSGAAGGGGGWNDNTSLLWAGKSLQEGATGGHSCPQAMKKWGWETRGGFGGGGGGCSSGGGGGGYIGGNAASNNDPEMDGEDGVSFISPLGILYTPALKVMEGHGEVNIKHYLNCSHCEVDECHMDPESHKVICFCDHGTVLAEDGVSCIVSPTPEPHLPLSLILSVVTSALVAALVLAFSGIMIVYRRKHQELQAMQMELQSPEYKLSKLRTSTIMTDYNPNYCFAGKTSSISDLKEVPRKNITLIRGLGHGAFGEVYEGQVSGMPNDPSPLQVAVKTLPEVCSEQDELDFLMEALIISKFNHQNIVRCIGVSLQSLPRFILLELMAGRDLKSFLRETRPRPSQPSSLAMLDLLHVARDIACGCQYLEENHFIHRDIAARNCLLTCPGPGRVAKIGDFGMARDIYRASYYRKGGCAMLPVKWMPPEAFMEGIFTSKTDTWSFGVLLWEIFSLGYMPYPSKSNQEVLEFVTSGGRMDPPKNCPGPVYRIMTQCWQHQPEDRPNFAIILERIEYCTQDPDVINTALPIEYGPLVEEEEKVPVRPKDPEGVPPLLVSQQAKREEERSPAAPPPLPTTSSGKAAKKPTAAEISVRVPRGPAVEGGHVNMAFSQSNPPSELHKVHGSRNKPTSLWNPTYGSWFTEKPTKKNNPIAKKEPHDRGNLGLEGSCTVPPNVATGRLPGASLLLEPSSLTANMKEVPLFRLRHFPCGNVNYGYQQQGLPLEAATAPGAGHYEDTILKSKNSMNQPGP

Sequence of ALK tyrosine kinase receptor (Homo sapiens, UniProt Q9UM73, L1196M) (Q9UM73 19-1620 L1196M limits assumed): as the sequence (Q9UM73 19-1620 G1202R limits assumed) above, with L1178M, R1184G counted along it
Sequence of ALK tyrosine kinase receptor (Homo sapiens, UniProt Q9UM73) (Q9UM73 whole entry): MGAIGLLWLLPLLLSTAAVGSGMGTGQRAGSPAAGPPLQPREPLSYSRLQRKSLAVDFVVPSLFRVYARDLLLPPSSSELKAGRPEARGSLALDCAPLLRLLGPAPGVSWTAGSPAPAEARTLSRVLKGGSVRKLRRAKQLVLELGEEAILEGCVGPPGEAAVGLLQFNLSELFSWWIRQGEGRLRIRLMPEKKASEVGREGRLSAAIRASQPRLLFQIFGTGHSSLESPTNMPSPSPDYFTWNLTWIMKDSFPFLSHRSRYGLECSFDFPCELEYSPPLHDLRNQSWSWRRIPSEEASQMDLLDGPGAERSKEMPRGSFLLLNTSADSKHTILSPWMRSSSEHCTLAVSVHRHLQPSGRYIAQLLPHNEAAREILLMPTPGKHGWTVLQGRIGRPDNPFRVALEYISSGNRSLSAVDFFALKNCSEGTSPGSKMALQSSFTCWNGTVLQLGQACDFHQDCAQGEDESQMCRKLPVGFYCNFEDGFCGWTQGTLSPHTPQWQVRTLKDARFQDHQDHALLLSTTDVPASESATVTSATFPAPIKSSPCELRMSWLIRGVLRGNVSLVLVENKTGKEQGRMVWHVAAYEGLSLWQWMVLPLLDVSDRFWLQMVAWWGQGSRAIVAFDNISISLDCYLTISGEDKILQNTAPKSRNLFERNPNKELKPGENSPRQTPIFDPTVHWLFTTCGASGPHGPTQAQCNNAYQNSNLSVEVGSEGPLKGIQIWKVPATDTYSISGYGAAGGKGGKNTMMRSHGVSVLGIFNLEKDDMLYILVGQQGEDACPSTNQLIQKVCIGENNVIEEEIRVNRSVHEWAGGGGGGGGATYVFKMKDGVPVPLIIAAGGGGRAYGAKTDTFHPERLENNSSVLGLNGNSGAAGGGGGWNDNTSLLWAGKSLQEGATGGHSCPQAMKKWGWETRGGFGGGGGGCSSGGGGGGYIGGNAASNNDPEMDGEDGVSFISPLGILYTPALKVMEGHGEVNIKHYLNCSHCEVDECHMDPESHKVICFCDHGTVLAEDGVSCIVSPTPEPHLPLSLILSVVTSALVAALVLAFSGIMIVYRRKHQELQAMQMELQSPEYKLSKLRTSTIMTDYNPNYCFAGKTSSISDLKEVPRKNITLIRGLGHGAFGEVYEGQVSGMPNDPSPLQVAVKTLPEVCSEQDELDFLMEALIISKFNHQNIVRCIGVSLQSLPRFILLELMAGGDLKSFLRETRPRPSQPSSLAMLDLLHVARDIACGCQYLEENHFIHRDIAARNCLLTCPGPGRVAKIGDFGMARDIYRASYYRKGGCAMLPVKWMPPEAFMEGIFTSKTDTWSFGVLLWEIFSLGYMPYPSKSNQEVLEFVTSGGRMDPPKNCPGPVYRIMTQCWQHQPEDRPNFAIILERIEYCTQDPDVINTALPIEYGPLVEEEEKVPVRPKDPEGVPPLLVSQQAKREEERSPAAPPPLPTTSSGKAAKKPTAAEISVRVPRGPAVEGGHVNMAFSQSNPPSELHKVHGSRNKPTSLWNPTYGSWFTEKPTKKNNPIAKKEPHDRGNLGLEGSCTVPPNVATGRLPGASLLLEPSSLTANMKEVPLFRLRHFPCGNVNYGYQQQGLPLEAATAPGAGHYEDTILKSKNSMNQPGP

For `CCNC(=O)c1noc(-c2cc(C(C)C)c(O)cc2O)c1-c1ccc(CN2CCOCC2)cc1` [LUMINESPIB], the IC50 (BT-474) was 14 nM, the IC50 (MDA-MB-231) was 21 nM and the IC50 [1] was 30 nM. It also gave an IC50 (HCT-116) of 16 nM, an IC50 (NCI-H3122) of 12.4 nM and an IC50 (NCI-N87) of 83 nM. The IC50 (NCI-H460) was 23 nM, the IC50 (DU-145) was 21 nM and the IC50 (A549) was 60 nM. The IC50 (EBC-1) was 13 nM and the IC50 (U-87 MG) was 31 nM.
Molecule `CC(C)c1cc(C(=O)N2Cc3ccc(CN4CCN(C)CC4)cc3C2)c(O)cc1O` [ONALESPIB] has an IC50 [2] of 13.6 nM and an IC50 (NCI-H3122) of 52 nM.
In the case of `CCNC(=O)c1noc(-c2cc(C(C)C)c(O)cc2O)c1-c1ccc(CNCC(=O)Nc2cccc(Nc3ncc(Cl)c(Nc4ccccc4S(=O)(=O)C(C)C)n3)c2)cc1`, the IC50 [2] is reported as 370 nM, the IC50 (NCI-H3122) is reported as 141 nM and the IC50 [3] is reported as 10.3 nM.
For `CCNC(=O)c1noc(-c2cc(C(C)C)c(O)cc2O)c1-c1ccc(C(=O)N2CCN(CC(=O)Nc3cccc(Nc4ncc(Cl)c(Nc5ccccc5S(=O)(=O)C(C)C)n4)c3)CC2)cc1`, the IC50 [2] was 123 nM, the IC50 (NCI-H3122) was 113 nM and the IC50 [3] was 22.9 nM.
For `COc1ccc(NC(=O)CN2CCN(Cc3ccc4c(c3)CN(C(=O)c3cc(C(C)C)c(O)cc3O)C4)CC2)cc1Nc1ncc(Cl)c(Nc2ccccc2S(=O)(=O)C(C)C)n1`, the IC50 [2] was 40 nM, the inhibition [4] was “Active” and the inhibition [5] was “Active”. For the same molecule, the IC50 (NCI-H3122) was 13 nM, the IC50 [3] was 9.8 nM and the IC50 [6] was 6 nM. The inhibition [7] was “Active” and the inhibition [8] was “Dose-dependent effect”.
`COc1ccc(NC(=O)CNC(=O)c2noc(-c3cc(C(C)C)c(O)cc3O)c2-c2ccc(CN3CCOCC3)cc2)cc1Nc1ncc(Cl)c(Nc2ccccc2S(=O)(=O)C(C)C)n1` gave an IC50 [2] of over 1000 nM, an IC50 (NCI-H3122) of 587 nM and an IC50 [3] of 108 nM.
Molecule `CC(C)c1cc(-c2onc(C(=O)NCC(=O)Nc3cccc(Nc4ncc(Cl)c(Nc5ccccc5S(=O)(=O)C(C)C)n4)c3)c2-c2ccc(CN3CCOCC3)cc2)c(O)cc1O` has an IC50 [2] of over 1000 nM, an IC50 (NCI-H3122) of 444 nM and an IC50 [3] of 53.7 nM.
For `COc1ccc(Nc2ncc(Cl)c(Nc3ccccc3S(=O)(=O)C(C)C)n2)cc1NC(=O)CNC(=O)c1noc(-c2cc(C(C)C)c(O)cc2O)c1-c1ccc(CN2CCOCC2)cc1`, the IC50 [2] was over 1000 nM, the IC50 (NCI-H3122) was 319 nM and the IC50 [3] was 958 nM.
With `COc1ccc(NC(=O)CNC(=O)CN2CCN(Cc3ccc4c(c3)CN(C(=O)c3cc(C(C)C)c(O)cc3O)C4)CC2)cc1Nc1ncc(Cl)c(Nc2ccccc2S(=O)(=O)C(C)C)n1` the IC50 [2] was 47 nM, the IC50 (NCI-H3122) was 175 nM and the IC50 [3] was 4.1 nM.
For `CCNC(=O)c1noc(-c2cc(C(C)C)c(O)cc2O)c1-c1ccc(CN2CCN(CC(=O)NCC(=O)Nc3ccc(OC)c(Nc4ncc(Cl)c(Nc5ccccc5S(=O)(=O)C(C)C)n4)c3)CC2)cc1`, the IC50 (BT-474) was 60 nM, the IC50 (MDA-MB-231) was 135 nM and the IC50 [2] was 84.8 nM. For the same molecule, the IC50 [1] was 495 nM, the IC50 [9] was 36.4 nM and the IC50 (HCT-116) was 193 nM. It also gave an IC50 (NCI-H3122) of 46 nM, an IC50 [3] of 6.9 nM and an IC50 (NCI-N87) of 230 nM. It also gave an IC50 [6] of 8.7 nM, an IC50 (NCI-H460) of 624 nM and an IC50 (DU-145) of 367 nM. For the same molecule, the IC50 (A549) was 613 nM, the IC50 (EBC-1) was 163 nM and the IC50 (U-87 MG) was 205 nM.
Molecule `CCNC(=O)c1noc(-c2cc(C(C)C)c(O)cc2O)c1-c1ccc(C(=O)NCC(=O)Nc2ccc(OC)c(Nc3ncc(Cl)c(Nc4ccccc4S(=O)(=O)C(C)C)n3)c2)cc1` has an IC50 [2] of over 1000 nM, an IC50 (NCI-H3122) of 159 nM and an IC50 [3] of 83.2 nM.
In the case of `CCNC(=O)c1noc(-c2cc(C(C)C)c(O)cc2O)c1-c1ccc(CNCC(=O)Nc2ccc(OC)c(Nc3ncc(Cl)c(Nc4ccccc4S(=O)(=O)C(C)C)n3)c2)cc1`, the IC50 [2] is reported as 260 nM, the IC50 (NCI-H3122) is reported as 57 nM and the IC50 [3] is reported as 24.2 nM.
`CCNC(=O)c1noc(-c2cc(C(C)C)c(O)cc2O)c1-c1ccc(CN2CCN(CC(=O)Nc3ccc(OC)c(Nc4ncc(Cl)c(Nc5ccccc5S(=O)(=O)C(C)C)n4)c3)CC2)cc1` showed an IC50 (BT-474) of 52 nM, an IC50 (MDA-MB-231) of 104 nM and an IC50 [2] of 100 nM. The inhibition [4] was “Active”, the IC50 [1] was 215 nM and the IC50 [9] was 85.5 nM. For the same molecule, the IC50 (HCT-116) was 82 nM, the inhibition [5] was “Active” and the IC50 (NCI-H3122) was 11 nM. The IC50 [3] was 17.3 nM, the IC50 (NCI-N87) was 503 nM and the IC50 [6] was 6.2 nM. For the same molecule, the IC50 (NCI-H460) was 235 nM, the IC50 (DU-145) was 228 nM and the IC50 (A549) was 287 nM. The inhibition [7] was “Active”, the IC50 (EBC-1) was 47 nM and the IC50 (U-87 MG) was 237 nM. The inhibition [8] was “Dose-dependent effect”.
